Experiments:
Format in all cases: functional
[1] = Antifungal activity against Bipolaris oryzae was measured as mycelial growth at 0.1 mg/mL concentration
[2] = Antifungal activity against Bipolaris oryzae was measured as mycelial growth at 0.5 mg/mL concentration
Curvularia lunata [3] = assay: Antifungal activity against Curvularia lunata was measured as mycelial growth at 0.1 mg/mL concentration
Curvularia lunata [4] = assay: Antifungal activity against Curvularia lunata was measured as mycelial growth at 0.5 mg/mL concentration
Fusarium oxysporum [5] = assay: Antifungal activity against Fusarium oxysporum was measured as mycelial growth at 0.1 mg/mL concentration
Enterococcus faecalis [6] = assay: Antibacterial activity against […] was measured as area of inhibition zone at 0.1 mg/mL concentration
Staphylococcus aureus [7] = assay: Antibacterial activity against Staphylococcus aureus was measured as area of inhibition zone at 0.1 mg/mL concentration; details: for zone of inhibition at 100 µg/mL: Staphylococcus aureus
Pseudomonas aeruginosa [8] = assay: Antibacterial activity against Pseudomonas aeruginosa was measured as area of inhibition zone at 0.1 mg/mL concentration; details: for zone of inhibition at 100 µg/mL: Pseudomonas aeruginosa
Fusarium oxysporum [9] = assay: Antifungal activity against Fusarium oxysporum was measured as mycelial growth at 0.5 mg/mL concentration
Thanatephorus cucumeris [10] = assay: Antifungal activity against Rhizoctonia solani was measured as mycelial growth at 0.1 mg/mL concentration
Thanatephorus cucumeris [11] = assay: Antifungal activity against Rhizoctonia solani was measured as mycelial growth at 0.5 mg/mL concentration
Alternaria alternata [12] = assay: Antifungal activity against Alternaria alternata was measured as mycelial growth at 0.1 mg/mL concentration
Alternaria alternata [13] = assay: Antifungal activity against Alternaria alternata was measured as mycelial growth at 0.5 mg/mL concentration
[14] = Antifungal activity against Bipolaris oryzae was determined at 0.1 mg/mL concentration
[15] = Antifungal activity against Bipolaris oryzae was determined at 0.5 mg/mL concentration
Curvularia lunata [16] = assay: Antifungal activity against Curvularia lunata was determined at 0.1 mg/mL concentration
Curvularia lunata [17] = assay: Antifungal activity against Curvularia lunata was determined at 0.5 mg/mL concentration
Fusarium oxysporum [18] = assay: Antifungal activity against Fusarium oxysporum was determined at 0.1 mg/mL concentration
Fusarium oxysporum [19] = assay: Antifungal activity against Fusarium oxysporum was determined at 0.5 mg/mL concentration
Thanatephorus cucumeris [20] = assay: Antifungal activity against Rhizoctonia solani was determined at 0.1 mg/mL concentration
Thanatephorus cucumeris [21] = assay: Antifungal activity against Rhizoctonia solani was determined at 0.5 mg/mL concentration
Escherichia coli [22] = assay: Antibacterial activity against Escherichia coli was determined at 0.1 mg/mL concentration
Escherichia coli [23] = assay: Antibacterial activity against Escherichia coli was determined at 0.5 mg/mL concentration
Pseudomonas aeruginosa [24] = assay: Antibacterial activity against Pseudomonas aeruginosa was determined at 0.1 mg/mL concentration
Enterococcus faecalis [25] = assay: Antibacterial activity against […] was determined at 0.1 mg/mL concentration
Enterococcus faecalis [26] = assay: Antibacterial activity against […] was determined at 0.5 mg/mL concentration
Staphylococcus aureus [27] = assay: Antibacterial activity against Staphylococcus aureus was determined at 0.1 mg/mL concentration
Staphylococcus aureus [28] = assay: Antibacterial activity against Staphylococcus aureus was determined at 0.5 mg/mL concentration
Pseudomonas aeruginosa [29] = assay: Antibacterial activity against Pseudomonas aeruginosa was determined at 0.5 mg/mL concentration
Alternaria alternata [30] = assay: Antifungal activity against Alternaria alternata was determined at 0.1 mg/mL concentration
Alternaria alternata [31] = assay: Antifungal activity against Alternaria alternata was determined at 0.5 mg/mL concentration

Row | SMILES | Mycelial growth [1] [cm] | Mycelial growth [2] [cm] | Mycelial growth (Curvularia lunata [3]) [cm] | Mycelial growth (Curvularia lunata [4]) [cm] | Mycelial growth (Fusarium oxysporum [5]) [cm] | zone of inhibition at 100 µg/mL (Enterococcus faecalis [6]) [mm] | Inhibition Zone (Staphylococcus aureus [7]) [cm] | zone of inhibition at 100 µg/mL (Staphylococcus aureus [7]) [mm] | zone of inhibition at 100 µg/mL (Pseudomonas aeruginosa [8]) [mm] | Mycelial growth (Fusarium oxysporum [9]) [cm] | Mycelial growth (Thanatephorus cucumeris [10]) [cm] | Mycelial growth (Thanatephorus cucumeris [11]) [cm] | Mycelial growth (Alternaria alternata [12]) [cm] | Mycelial growth (Alternaria alternata [13]) [cm] | inhibition at 100 µg/mL [14] [%] | inhibition at 500 µg/mL [15] [%] | inhibition at 100 µg/mL (Curvularia lunata [16]) [%] | inhibition at 500 µg/mL (Curvularia lunata [17]) [%] | inhibition at 100 µg/mL (Fusarium oxysporum [18]) [%] | inhibition at 500 µg/mL (Fusarium oxysporum [19]) [%] | further results
1 | Cc1nn(-c2ccc([N+](=O)[O-])cc2[N+](=O)[O-])cc1C(=O)OCc1ccccc1 | 6 | 4.8 | 6.4 | 5.3 | 6.3 | 73 | 4.1 | 71 | 17 | 4.3 | 7.9 | 6.5 | 5.2 | 4.2 | 33.3 | 46.7 | 28.9 | 41.1 | 30 | 52.2 | Inhibition Zone (Pseudomonas aeruginosa [8]): 2 cm; inhibition at 100 µg/mL (Thanatephorus cucumeris [20]): 12.2%; inhibition at 500 µg/mL (Thanatephorus cucumeris [21]): 27.8%; inhibition at 100 µg/mL (Escherichia coli [22]): 17.8%; inhibition at 500 µg/mL (Escherichia coli [23]): 54.4%; inhibition at 100 µg/mL (Pseudomonas aeruginosa [24]): 18.9%; inhibition at 100 µg/mL (Enterococcus faecalis [25]): 56.7%; inhibition at 500 µg/mL (Enterococcus faecalis [26]): 81.1%; inhibition at 100 µg/mL (Staphylococcus aureus [27]): 45.6%; inhibition at 500 µg/mL (Staphylococcus aureus [28]): 78.9%; inhibition at 500 µg/mL (Pseudomonas aeruginosa [29]): 22.2%; inhibition at 100 µg/mL (Alternaria alternata [30]): 42.2%; inhibition at 500 µg/mL (Alternaria alternata [31]): 53.3%
2 | Cc1nn(-c2ccc([N+](=O)[O-])cc2[N+](=O)[O-])cc1C(=O)OC(C)(C)C | 5.5 | 4.3 | 6.7 | 5.4 | 7.8 | 48 | 7.3 | 84 | 0 | 5.7 | 9 | 8.5 | 6.2 | 5.1 | 38.9 | 52.2 | 25.6 | 40 | 13.3 | 36.7 | inhibition at 100 µg/mL (Thanatephorus cucumeris [20]): 0%; inhibition at 500 µg/mL (Thanatephorus cucumeris [21]): 5.6%; inhibition at 100 µg/mL (Escherichia coli [22]): 16.7%; inhibition at 500 µg/mL (Escherichia coli [23]): 52.2%; inhibition at 100 µg/mL (Pseudomonas aeruginosa [24]): 0%; inhibition at 100 µg/mL (Enterococcus faecalis [25]): 21.1%; inhibition at 500 µg/mL (Enterococcus faecalis [26]): 53.3%; inhibition at 100 µg/mL (Staphylococcus aureus [27]): 81.1%; inhibition at 500 µg/mL (Staphylococcus aureus [28]): 93.3%; inhibition at 500 µg/mL (Pseudomonas aeruginosa [29]): 0%; inhibition at 100 µg/mL (Alternaria alternata [30]): 31.1%; inhibition at 500 µg/mL (Alternaria alternata [31]): 43.3%
